Laboratory results published in patent US10646496B2, “Joint application of statin and adrenocortical hormone for treating chronic subdural hematoma” (priority 2016, dated 2020).
Values joined by “and” are separate entries in the source; they are usually repeats but may differ in a detail not shown here. Equal entries are not always repeated. Where two headings read alike, the source gives them in different places.

Assays:
[1] = system: VEGF, TGF-β, MMP-9 and Ang-1/2; conditions: small dose of atorvastatin, recent animal experiments; cited from earlier work
[2] = system: VEGF, TGF-β, MMP-9 and Ang-1/2; assay: Rat subdural hematoma model: factor expression in hematoma capsule/cavity (real-time PCR, ELISA); assay type: in vivo
Text: In FIG. 1 to FIG. 9, “#” denotes a statistically significant difference in the small-dose group and the large-dose group as compared with the control group; and “*” denotes a statistically significant difference between the small-dose group and the large-dose group.

[3] = system: chronic subdural hematoma; conditions: for Hematoma amount in the fourth week, average value: treatment for one month, conservatively successful patients
[4] = large-dose 5 mg/kg/day, 28 rats
[5] = small-dose 3 mg/kg/day, 30 rats
[6] = large-dose group 8 mg/kg/day oral, 2 days
[7] = large-dose group 8 mg/kg/day, 7 days after the operation
[8] = small-dose group 3 mg/kg/day oral, 2 days
[9] = small-dose group 3 mg/kg/day, 7 days after the operation, vs control and large-dose group

CC(C)c1c(C(=O)Nc2ccccc2)c(-c2ccccc2)c(-c2ccc(F)cc2)n1CC[C@@H](O)C[C@@H](O)CC(=O)O [atorvastatin]
local TNF-α and IL-6 gene and protein levels in the hematoma capsule [1]: significantly reduce
Injury infection (subcutaneous hematoma; [4]): 4
Rats died in the treatment (subcutaneous hematoma; [4]): 7
death rate (subcutaneous hematoma; large-dose group compared with small-dose atorvastatin group): significantly improved
hormone-caused complications (subcutaneous hematoma; rat, in vivo): significantly increased
Poor condition (subcutaneous hematoma; rat, in vivo, 3 mg/kg/day): 3
Poor condition (subcutaneous hematoma; rat, in vivo, 5 mg/kg/day): 6
Injury infection (subcutaneous hematoma; [5]): 1
Rats died in the treatment (subcutaneous hematoma; [5]): 2
expression of MMP-9 [2, 6]: significantly higher
expression of TGFβ [2, 6]: significantly higher
expression of VEGF [2, 6]: significantly higher
expression of Ang2 [2, 7]: high expressions
expression of MMP-9 [2, 7]: high expressions
expression of TGF-β [2, 7]: high expressions
expression of VEGF [2, 7]: high expressions
mRNA expression of hematoma capsule Ang1 [2, 8]: significantly higher
mRNA expression of hematoma capsule VEGF [2, 8]: significantly higher
Ang1 [2, 9]: significantly higher
expression level of MMP-9 [2, 9]: significantly lower
expression level of VEGF [2, 9]: significantly lower
Hematoma amount in the fourth week, average value ([3]; atorvastatin alone): 28.29 ± 29.47 mL and 28.29 mL

C[C@@H]1C[C@H]2[C@@H]3CCC4=CC(=O)C=C[C@]4(C)[C@@]3(F)[C@@H](O)C[C@]2(C)[C@@]1(O)C(=O)CO [dexamethasone]
Reduced hematoma amount in the fourth week, average value ([3]; small dose dexamethasone alone): 24.71 mL
patients with no therapeutic effect, transferred to surgical treatment ([3]; small dose dexamethasone alone, among the 15 patients): 5 patients
average hematoma absorption rate ([3]; small dose dexamethasone alone, fourth week / one month after administration): 35%
Hematoma amount in the fourth week ([3]; small dose dexamethasone alone, oral, 0.75 mg 3x/day wk 1, 2x/day wk 2-3, 1x/day wk 4, individual patients (15)): 40.95 ml and 80.00 ml (2×) and 36.30 ml and 32.73 ml and 96.53 ml and 39.88 ml and 30.25 ml and 35.00 ml and 37.00 ml
Hematoma amount in the fourth week, average value ([3]; small dose dexamethasone alone): 50.86 ± 24.52 mL and 50.86 mL
Reduced hematoma amount in the fourth week ([3]; small dose dexamethasone alone, individual patients (15)): 20.93 mL and 25.00 mL and 39.64 mL and 23.90 mL and 8.13 mL and 38.43 mL and 24.08 mL and 36.40 mL and 13.60 mL and 17.00 mL
